Test results reported in US20070191490A1, “Withacnistin compounds for treatment of cancer” (priority 2006, published 2007).
Several values for one entry are separate records, joined by “and”; a condition that tells them apart may be missing. Equal values may be shown once. Read-outs that look alike come from different tables or passages of the source.

Columns and labels:
[1] = tested on: phosphotyrosine-JAK2; test: Inhibition of phosphotyrosine-JAK2 levels in tumor cell lines (Western blotting); assay type: cell-based, human; settings: for levels of P-JAK2: A549 cells, 10 μM, 4 hours
Procedure: (§1) Western blotting. Treated cell samples were lysed in 30 mM HEPES, pH 7.5, 10 mM NaCl, 5 mM MgCl2, 25 mM NaF, 1 mM EGTA, 1% Triton X-100, 10% glycerol, 2 mM sodium orthovanadate, 10 μg/ml aprotinin, 10μ/ml soybean trypsin inhibitor, 25 μg/ml leupeptin, 2 mM PMSF, and 6.4 mg/ml p-nitrophenylphosphate. Phospho-STAT3, phospho-AKT, phospho-Src, and phospho-p42/p44 MAPK antibodies were obtained from Cell Signaling Technologies (Cambridge, Mass., USA). Phospho-JNK and whole STAT3 antibodies were purchased from Santa Cruz Biotechnology (Santa Cruz, Calif., USA); phospho-JAK2 antibody came from Upstate Biotechnology (Lake Placid, N.Y., USA). Membranes were blocked in either 5% milk in phosphate-buffered saline (PBS), pH 7.4, containing 0.1% Tween-20 (PBS-T) or 1% BSA in tris-buffered saline (TBS), pH 7.5, containing 0.1% Tween-20 (TBS-T). Phospho-specific antibodies (excepting P-MAPK and P-JNK) were incubated in 1% BSA in TBS-T while all other antibodies were diluted in 5% milk in PBS-T for either 2 h at room temperature or overnight at 4° C. HRP-conjugated secondary antibodies (Jackson ImmunoResearch, West Grove, Pa., USA) were diluted in 5% milk in either PBS-T or TBS-T at 1:1000 dilution for 1 h at room temperature. Western blots were visualized using enhanced chemiluminescence.
(§2) To this end, A549 cells (a human non-small-cell lung carcinoma line) were treated with either vehicle, cucurbitacin analogs A, B, E, or I, or withacnistin mixture (10 ∥M) for 4 hours and the cell lysates processed for Western blotting with antiphosphotyrosine STAT3 (Y705) antibody or antiphosphotyrosine JAK2 (Y1007, Y1008) antibody as described under Materials and Methods.
(§3) As further support of the specific antiphosphotyrosine STAT3, but not antiphosphotyrosine JAK2, activity of withacnistin, A549 cells, as well as two breast carcinoma cell lines (MDA-MB-435 and MDA-MB-468) that also express constitutively activated JAK2 and STAT3, were treated with the withacnistin mixture at various concentrations, and determined IC50 values of inhibition of STAT3 and JAK2 activation.

[2] = tested on: phosphotyrosine-STAT3; test: Inhibition of phosphotyrosine-STAT3 levels in tumor cell lines (Western blotting); assay type: cell-based, human
Procedure: as §1, §2, §3

[3] = tested on: A549 tumors; test: Antitumor activity in nude mouse xenograft model, A549; assay type: in vivo; settings: nude mice
Source text: (§4) Antitumor activity in the nude mouse tumor xenograft model. Nude mice (Charles River, Wilmington, Mass., USA) were maintained in accordance with the Institutional Animal Care and Use Committee (IACUC) procedures and guidelines. A549 cells were harvested, resuspended in PBS, and injected subcutaneously (s.c.) into the right and left flank (1×10^7 cells per flank) of 8-week-old female nude mice as reported previously (Blaskovich, M. A. et al. Cancer Res., 2003, 63:1270-1279). When tumors reached about 150 mm^3, animals were randomized (four animals per group; two tumors per animal) and dosed intraperitoneally (i.p.) either with cucurbitacin analogs (0.5 or 1 mg/kg/day, i.p.) in 20% DMSO in water or with an equal volume of vehicle control. The tumor volumes were determined by measuring the length (l) and the width (w) and calculating the volume (V=lw^2/2) as described previously (Blaskovich, M. A. et al. Cancer Res., 2003, 63:1270-1279). Statistical significance between control and treated animals were evaluated by using Student's t-test.
(§5) To determine the ability of the cucurbitacin analogs and withacnistin to inhibit tumor growth in vivo, the antitumor activity of the cucurbitacin analogs and withacnistin against both A549 and v-Src/3T3 tumors in a nude mouse xenograft model was evaluated. When the tumors became palpable (at volumes of approximately 100-150 mm^3), the mice were treated either with vehicle control or 1 mg/kg/day of the cucurbitacins or the withacnistin mixture. Tumor volumes were monitored by caliper measurement as previously described (Blaskovich, M. A. et al. Cancer Res., 2003, 63:1270-1279) and under Materials and Methods.

[4] = tested on: v-Src/3T3 tumors; test: Antitumor activity in nude mouse xenograft model, v-Src/3T3; assay type: in vivo; settings: v-Src/3T3 xenograft, nude mice
Source text: as §4, §5
Withacnistin inhibited 57% of tumor growth while Cuc I, B, and E inhibited 45, 40, and 42% of tumor growth, respectively (FIG. 3 and Table 2).

[5] = 1 mg/kg/day i.p., Wit = withacnistin mixture
[6] = 0.5 mg/kg/day i.p., 0.5 mg/kg/day

| Compound | P-JAK2 levels ([1]; A549 cells (FIG. 8A)) | P-STAT3 levels ([2]; A549 cells (FIG. 8A)) | % Inhibition of tumor growth [3, 5] [%] | levels of P-JAK2 [1] | % Inhibition of tumor growth [4, 5] [%] | levels of P-STAT3 ([2]; A549 cells, 10 μM, 4 hours) | % Inhibition of tumor growth [3, 6] | % Inhibition of tumor growth [4, 6] | levels of P-STAT3 [2] |
| --- | --- | --- | --- | --- | --- | --- | --- | --- | --- |
| 3-ethoxy-2,3-dihydrowithacnistin [EDH-Wit] | suppressed neither | suppressed neither | – | – | – | – | – | – | – |
| CC(=O)OC(C)(C)/C=C/C(=O)[C@](C)(O)[C@H]1[C@H](O)C[C@@]2(C)[C@@H]3CC=C4[C@@H](C=C(O)C(=O)C4(C)C)[C@]3(C)C(=O)C[C@]12C [Cuc E, cucurbitacin E] | – | – | 48.5 | inhibited | 42 | inhibited | – | – | – |
| CC(=O)OC(C)(C)/C=C/C(=O)[C@](C)(O)[C@H]1[C@H](O)C[C@@]2(C)[C@@H]3CC=C4[C@H](C[C@H](O)C(=O)C4(C)C)[C@]3(C)C(=O)C[C@]12C [Cuc B, cucurbitacin B] | – | – | – | inhibited | – | – | 53.6% and 53.6^b % | 40% and 40^a % | inhibited |
